Test results published in patent US10940135B2, “Paclitaxel pharmaceutical composition and pharmaceutical preparation thereof, preparation process and use thereof” (Sinotherapeutics Inc., priority 2016, dated 2021).
Values after ≈ are worked out from the molar mass of the structure shown.

Assays:
[1] = Apparent solubility determination in pH 6.8 phosphate buffer; type: physicochemical
Experimental: Apparent solubility determination: an excessive amount of the pharmaceutical compositions was weighed and put into a container. Phosphate buffer solution with pH6.8 was added respectively. The volume of the phosphate buffer solution was about 2/3 of volume of the container. The container was then shaken in a shaking table at 37° C. for 3 h. The resulting solution was filtered with a 0.45 μm filter membrane, then the filtrate was collected, further diluted with an appropriate amount of methanol, mixed by vortex and analyzed by HPLC.
Wherein the HPLC analysis parameters are as follows: […]

[2] = Dissolution determination (USP II method, pH 6.8 buffer + 0.2% Tween 80); type: physicochemical; details: pH 6.8 buffer + 0.2% Tween 80, 100 rpm, 37.5° C.
Description: Dissolution Determination:
Wherein pH6.8 represents the environment simulating the human intestinal tract (small intestine).
Analysis of dissolved sample: the solution obtained in the dissolution determination test was filtered with a 0.45 μm filter membrane, then the filtrate was collected, further diluted with an appropriate amount of methanol, mixed by vortex and analyzed by HPLC. The HPLC analysis method of the dissolved sample was the same as the HPLC analysis method mentioned above in the solubility determination.

[3] = cited from earlier work
[4] = cited from earlier work; remark: listed apart in the source
[5] = reported as 0.1˜<10 μg/ml; cited from earlier work

- Ratio of solubility (composition/bulk drug) [1]: 1
- solubility at 3 h ([1]; aqueous buffer, thermodynamic from solid, apparent solubility, 37° C., shaken 3 h): 4 µg/mL (≈ 4.68 µM)
- Dissolution % ([2]; 15 min): 13.1%
- Dissolution % ([2]; 30 min): 14.5%
- Dissolution % ([2]; 45 min): 14.6%
- Dissolution % ([2]; 60 min): 14.8%
- Dissolution % ([2]; 120 min): 14.1%
Structure (SMILES): CC(=O)O[C@H]1C(=O)[C@@]2(C)[C@H]([C@H](OC(=O)c3ccccc3)[C@]3(O)C[C@H](OC(=O)[C@H](O)[C@@H](NC(=O)c4ccccc4)c4ccccc4)C(C)=C1C3(C)C)[C@]1(OC(C)=O)CO[C@@H]1C[C@@H]2O [Bulk drug, 5β,20-epoxy-1,2α,4,7β,10β,13α-hexahydroxytaxane-11-ene-9-one-4,10-diacetate-2-benzoate-13[(2′R,3′S)—N-benzoyl-3-phenylisoserine ester]]
- pKa [3]: 11.99
- oral bioavailability [4]: about 2%
- solubility in water [5]: lower than 10 μg/ml
